We go through 8 compounds from patent EP0085842A1, “Antimycosic agents” (BAYER AG, priority 1982, dated 1983).

Converted amounts (≈) assume the structure as drawn.

Assay [1] deals with Trichophyton mentagr. Nature of the assay: Antimycotic in-vitro activity, serial dilution test (MIC). The assay is classed as cell-based, Trichophyton mentagrophytes. Conditions: Sabouraud's milieu d'epreuve, 20°C, 96 h, inoculum 5 x 10^4 Keime/ml, read-out: MHK-Werte in γ/ml Nährmedium Trichophyton mentagr. How it is done: (§1) Versuchsbeschreibung: • Die in-vitro-Prüfungen wurden im Reihenverdünnungstest mit Keiminokula von durchschnittlich 5 x 10^4 Keimen/ml Substrat durchgeführt. Als Nährmedium dienten • a) für Dermatophyten und Schimmelpilze: Sabouraud's milieu d'epreuve • b) für Hefen: • Fleischextrakt-Traubenzucker-Bouillon.
(§2) Die Bebrütungstemperatur betrug 20°C, die Bebrütungsdauer lag bei 24 bis 96 Stunden bei Hefen und 96 Stunden bei Dermatophyten und Schimmelpilzen.

For assay [2], the system named is Aspergillus fumigatus. The description is as above. The class given is cell-based. Conditions: Sabouraud's milieu d'epreuve, 20°C, 96 h, inoculum 5 x 10^4 Keime/ml, read-out: MHK-Werte in γ/ml Nährmedium Aspergillus fumigatus. The method, then: as §1, §2
Assay [3] deals with Candida albicans. The description is as above. The assay is classed as cell-based. The following applies: Fleischextrakt-Traubenzucker-Bouillon, 20°C, 24 to 96 h, inoculum 5 x 10^4 Keime/ml, read-out: MHK-Werte in γ/ml Nährmedium Candida albicans. How it is done:
as §1, §2

The test system of assay [4] is Microsporum canis. The description is as above. The following applies: Sabouraud's milieu d'epreuve, 20°C, 96 h, inoculum 5 x 10^4 Keime/ml, read-out: MHK-Werte in γ/ml Nährmedium Microsporum canis. The class given is cell-based. The method, then: as §1, §2
In assay [5] the test system is Torulopsis glabrata. The description is as above. The assay is classed as cell-based. Conditions: Nakaseomyces glabratus; Fleischextrakt-Traubenzucker-Bouillon, 20°C, 24 to 96 h, inoculum 5 x 10^4 Keime/ml; read-out: MHK-Werte in γ/ml Nährmedium Torulopsis glabrata. The method, then: as §1, §2
The test system of assay [6] is Candida-Zellen. Nature of the assay: Antimycotic in-vivo activity (oral) in mouse candidosis. Set-up: species or system Mäuse vom Typ SPF-CF1. The following applies: for Wirkung: mice infected i.v. with Candida, oral 50 - 100 mg/kg one hour before and seven hours after infection, survivors on day 6 p.i.; for Wirkung compared with known compounds (A), (B), (C) and (D): mouse candidosis, oral 50 - 100 mg/kg. How it is done: Mäuse vom Typ SPF-CF1 wurden intravenös mit 1 - 2 x 10^6 logarithmisch wachsenden Candida-Zellen, die in physiologischer Kochsalzlösung suspendiert werden, infiziert. Eine Stunde vor und sieben Sunden nach der Infektion werden die Tiere mit jeweils 50 - 100 mg/kg Körpergewicht der Präparate oral behandelt.
Unbehandelte Tiere starben 3 bis 6 Tage post infektionem. Die Überlebensrate am 6. Tag post infektionem betrug bei unbehandelten Kontrolltieren etwa 5 %.
+++++ = sehr gute Wirkung = 90 % Überlebende am 6.Tag p.i. ++++ = gute Wirkung = 80 % Überlebende am 6.Tag p.i. +++ = Wirkung = 60 % Überlebende am 6.Tag p.i. ++ = schwache Wirkung = 40 % Überlebende am 6.Tag p.i. + = Spur Wirkung = unter 40 % Überlebende am 6.Tag p.i. k.W. = keine Wirkung

The test system of assay [7] is Trichophyton mentagrophytes. Nature of the assay: Antimycotic in-vivo activity (local) in experimental guinea pig trichophytosis. Set-up: species or system Meerschweinchen; key: +++++: sehr gute Wirkung = keine Infektionszeichen am 12.-15.Tag p.i.; ++++: gute Wirkung = geringe Rötung, vereinzelt Schuppen; +++: Wirkung = Rötung, Schuppung, ohne Haarausfall; ++: schwache Wirkung = Rötung, Schuppung, Haarausfall; +: Spur Wirkung = flächiger Haarausfall, entzündliche Hautreaktion.

The mark [8] stands for this setting: local treatment, trichophytosis model.
Setting [9] is: local, 1 x daily from day 3 p.i., 15 %ige Lösung in Dimethylsulfoxid:Glycerin = 1:4, infection signs day 12-15 p.i.

On to `CC(C)(CF)C(O)(CSc1ccc(Cl)cc1)Cn1cncn1` (centres unmarked) [Beispiel 10], for which the MIC was less than 1 µg/mL in assay [1]; less than 1 µg/mL in assay [2]; 4 µg/mL (≈ 11.6 µM) in assay [3]; less than 1 µg/mL in assay [4]; 16 µg/mL (≈ 46.5 µM) in assay [5]. In addition, the Wirkung entry in assay [6] was “++++ (gute Wirkung = 80 % Überlebende am 6.Tag p.i.)”; in assay [7] (setting [8]), “Wirkung bis gute Wirkung”; in assay [7] (setting [9]), “++++”. Further, the “Wirkung compared with known compounds (A), (B), (C) and (D)” value (from here on “Wirkung compared with known compounds”) in assay [6] is “bessere Wirkung”.
Regarding `CC(CF)(CF)C(O)(COc1ccc(Cl)cc1)Cn1cncn1` (centres unmarked) [Beispiel 13], the MIC in assay [1] was less than 1 µg/mL; in assay [2], 4 µg/mL (≈ 11.6 µM); in assay [3], less than 1 µg/mL; in assay [4] it was 2 µg/mL (≈ 5.78 µM); in assay [5], 8 µg/mL (≈ 23.1 µM). Besides, the figures for the Wirkung entry in assay [6], in assay [7] (setting [8]) and in assay [7] (setting [9]) were “+++++ (sehr gute Wirkung = 90 % Überlebende am 6.Tag p.i.)”, “Wirkung bis gute Wirkung” and “+++”, respectively. For the same compound, the “Wirkung compared with known compounds” value in assay [6] is on record as “bessere Wirkung”.
On to `CC(CF)(CF)C(O)(COc1ccc(Cl)cc1Cl)Cn1cncn1` (centres unmarked) [Beispiel 14], for which the MIC in assay [1] is less than 1 µg/mL; in assay [2], 4 µg/mL (≈ 10.5 µM); in assay [3], less than 1 µg/mL; in assay [4], less than 1 µg/mL; in assay [5], 4 µg/mL (≈ 10.5 µM). Moreover, the Wirkung result in assay [6] is recorded as “+++++ (sehr gute Wirkung = 90 % Überlebende am 6.Tag p.i.)”; in assay [7] (setting [8]), “Wirkung bis gute Wirkung”; in assay [7] (setting [9]), “++++”. The “Wirkung compared with known compounds” value in assay [6] is on record as “bessere Wirkung”.
On to `Cc1cc(Cl)ccc1OCC(O)(Cn1cncn1)C(C)(CF)CF` (centres unmarked) [Beispiel 15], for which the MIC in assay [1] was less than 1 µg/mL; in assay [2], 8 µg/mL (≈ 22.2 µM); in assay [3] it was less than 1 µg/mL; in assay [4], less than 1 µg/mL; in assay [5] it was 4 µg/mL (≈ 11.1 µM). Moreover, the Wirkung result is “++++ (gute Wirkung = 80 % Überlebende am 6.Tag p.i.)” in assay [6], “Wirkung bis gute Wirkung” in assay [7] (setting [8]) and “++++” in assay [7] (setting [9]). For the same compound, in assay [6], the “Wirkung compared with known compounds” value is on record as “bessere Wirkung”.
Regarding `C=CC(C)(C)C(O)(COc1ccc(Cl)cc1)Cn1cncn1` (centres unmarked) [Beispiel 22], the MIC in assay [1] was less than 1 µg/mL; in assay [2] it was less than 1 µg/mL; in assay [3], 2 µg/mL (≈ 6.21 µM); in assay [4], 4 µg/mL (≈ 12.4 µM); in assay [5], 16 µg/mL (≈ 49.7 µM). Also, the Wirkung entry in assay [6] is “+++++ (sehr gute Wirkung = 90 % Überlebende am 6.Tag p.i.)”; in assay [7] (setting [9]) it was “++”. In addition, the “Wirkung compared with known compounds” value in assay [6] is “bessere Wirkung”.
For `CC(C)(CF)C(O)(CCc1ccc(Cl)cc1)Cn1cncn1` (centres unmarked) [Beispiel 25], the MIC in assay [1] was less than 1 µg/mL; in assay [2], less than 1 µg/mL; in assay [3], less than 1 µg/mL; in assay [4], less than 1 µg/mL; in assay [5], 2 µg/mL (≈ 6.14 µM). The Wirkung entry in assay [6] is reported as “+++ (Wirkung = 60 % Überlebende am 6.Tag p.i.)”; in assay [7] (setting [8]) it was “Wirkung bis gute Wirkung”; in assay [7] (setting [9]), “++++”. The “Wirkung compared with known compounds” value in assay [6] is listed as “bessere Wirkung”.
With `CC(C)(CF)C(O)(CCc1ccc(Cl)cc1Cl)Cn1cncn1` (centres unmarked) [Beispiel 26], the MIC is less than 1 µg/mL in assay [1]; less than 1 µg/mL in assay [2]; 4 µg/mL (≈ 11.1 µM) in assay [3]; 2 µg/mL (≈ 5.55 µM) in assay [4]; 8 µg/mL (≈ 22.2 µM) in assay [5]. Also, the Wirkung entry in assay [6] is “+++ (Wirkung = 60 % Überlebende am 6.Tag p.i.)”; in assay [7] (setting [8]) it was “Wirkung bis gute Wirkung”; in assay [7] (setting [9]), “+++”. Moreover, the “Wirkung compared with known compounds” value in assay [6] was “bessere Wirkung”.
Take `CC(CF)(CF)C(O)(CCc1ccc(Cl)cc1Cl)Cn1cncn1` (centres unmarked) [Beispiel 27]: the MIC is less than 1 µg/mL in assay [1]; 2 µg/mL (≈ 5.29 µM) in assay [2]; 2 µg/mL (≈ 5.29 µM) in assay [3]; 2 µg/mL (≈ 5.29 µM) in assay [4]; 4 µg/mL (≈ 10.6 µM) in assay [5]. Further, the Wirkung entry in assay [6] is “+++ (Wirkung = 60 % Überlebende am 6.Tag p.i.)”; in assay [7] (setting [8]), “Wirkung bis gute Wirkung”; in assay [7] (setting [9]), “+++”. Further, the “Wirkung compared with known compounds” value in assay [6] is “bessere Wirkung”.
